Experimental data from patent publication EP0579202A1, “Sulfhydryl-complexing agents in clinical test elements” (Johnson & Johnson Clinical Diagnostics, Inc., priority 1992, dated 1994).
Values belong to the molecule of their own block, whether it stands above or below them.

Columns and labels:
[1] = Dry salicylate element with blocking agent in the spreading layer (Example 1); details: for reducing sulfhydryl interference: salicylate element; for Salicylate Prediction of Fluid Fluid B: serum with 40 mg/dL salicylate and 100 mg/dL NAC; for Salicylate Prediction of Fluid Fluid B / Salicylate Prediction of Fluid Fluid C / Salicylate Prediction of Fluid Fluid A: agent in spreading layer at given g/m²; for Salicylate Prediction of Fluid Fluid C / Salicylate Prediction of Fluid Fluid A: serum with 40 mg/dL salicylate; for Salicylate Prediction of Fluid Fluid C: one hour exposure to stopper containing 2-benzothiazolethiol; for Salicylate Prediction of Fluid Fluid A: 540 nm, 5 minute, 37°C
Experimental: In this example, a dry analytical element formulated for measuring salicylate was used. […] A series of serum samples containing known levels of salicylate were spotted on the various test elements. Absorbance was measured at 540 nm after a 5 minute incubation at 37°C. From this series, a relationship between element absorbance and salicylate level could be made.
Serum samples containing 40 mg/dL of salicylate (Fluid A) and either 100 mg/dL of NAC (Fluid B) or a one hour exposure to a stopper containing 2-benzothiazolethiol (Fluid C) were then spotted on the elements and their predicted salicylate levels determined.

[2] = Salicylate element with and without silver nitrate (Example 3)
Experimental: Standard elements (without blocking reagent) were spotted with solutions containing human serum spiked with salicylate in concentrations between 0 and 60 mg/dL. After a 5 minute incubation at 37°C the reflectance density was measured at 540 nm. Predicted salicylate concentration can be determined by fitting a response curve through the reflectance densities produced.

[3] = Screening of sulfhydryl-blocking reagents for NAC interference in the standard SOX solution assay; format: biochemical; details: more NAC than N-ethyl maleimide
Experimental: (§1) A standard SOX reaction solution can be prepared containing in 1 mL; 100 mM TRIS-C1, pH 7.75, 200 mM sarcosine, 1.5 mM 4-AAP, 0.02% (by weight) phenol, and 5.9 Units peroxidase. All reagents are combined in the assay cuvette and incubated at 37°C for 10 minutes after which time 1 Unit/mL SOX is added to the solution to initiate reaction. Reactions are observed spectrophotometrically at 505 nm; millimolar extinction coefficient is 17.4.
A variety of materials were selected as examples of reagents that might complex with (bind) the sulfhydryl group of NAC and thus block interference. […] One group contains materials not effective under the conditions tested; a second group appeared to minimize NAC interference, but adversely affected the assay. For example, the solution became gel-like or color formation was impaired. It is possible that this group of materials would be effective if they were incorporated apart from the detection chemistry, for example, either attached to beads or polymers or in a separate layer in a multilayer slide format.
The third group contains materials that effectively eliminated NAC interference and had no effect on dye formation or enzyme rate. In each case, the blocking reagent alone (set d) had no effect on the detection system. When this group of blocking reagents and NAC were included in the reaction cuvette, SOX reaction rates improved markedly. […]

[4] = Acetaminophen element with and without maleimide (Example 4); details: n-acetylcysteine at 100 mg/dL
Experimental: This example is similar to Example 3 except that the analyte is acetaminophen and the element used for testing is the one shown in Table VII below.
Human serum spiked with acetaminophen varying in concentration between 1 and 294 mg/dL were spotted on the standard element and the element of the invention. After incubating for 5 minutes at 37°C, reflectance density was measured at 670 nm. Predictions of acetaminophen concentration were obtained as was done for salicylate concentration in Example 3. Differences between the predicted values and the values actually obtained from the two elements (standard and the invention) are shown in Table VIII.

horse radish peroxidase = target: T1, horse radish peroxidase (Armoracia rusticana, UniProt P00433); test: Effect of NAC on peroxidase activity (o-dianisidine dye formation); format: biochemical; details: 1 mM NAC in reaction mixture; 37°C; 430 nm
T1 sequence (P00433 31-338): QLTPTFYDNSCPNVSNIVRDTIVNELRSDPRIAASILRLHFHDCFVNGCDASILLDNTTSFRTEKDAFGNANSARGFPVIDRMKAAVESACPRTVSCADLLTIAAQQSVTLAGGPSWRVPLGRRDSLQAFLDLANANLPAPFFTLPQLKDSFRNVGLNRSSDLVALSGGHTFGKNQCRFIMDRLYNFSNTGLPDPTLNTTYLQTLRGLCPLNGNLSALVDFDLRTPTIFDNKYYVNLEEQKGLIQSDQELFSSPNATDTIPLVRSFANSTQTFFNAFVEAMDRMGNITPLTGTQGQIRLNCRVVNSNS
Experimental: One mL reaction solution was prepared containing 100 mM TRIS-C1, pH 7.75, 0.88 mM H₂O₂, and 0.157 mM o-dianisidine. All reagents were combined in the assay cuvette and incubated at 37°C for 10 minutes after which time 0.59 Unit of horse radish peroxidase was added to the solution to initiate reaction. Reactions were monitored spectrophotometrically at 430 nm; millimolar extinction coefficient was 11.3.

[5] = Effect of NAC on preformed indicator dye in the SOX reaction (bleaching); details: for Final absorbances: 505 nm
Experimental: as §1
When determining the effect of NAC on SOX activity, the standard test described above is carried out except that to allow the reaction to go to completion before NAC is added, only 0.1 mM sarcosine is added. Thus, we ensured that all color formation was complete (the sarcosine being depleted). Indicator dye formed in four cuvettes when SOX was added; absorbance endpoint was 1,800. NAC then was added to the cuvettes to the final concentration of 0, 1, 2.5 or 10 mM, and the changes in absorption monitored. Rapidly (less than 10 seconds) each cuvette containing MAC lost color, proportional to MAC concentration. Final absorbances were 1.880, 1.100, 0.600 and 0.150 for cuvette containing 0, 1, 2.5 or 10 mM NAC, respectively.

[6] = Placement of the blocking reagent in the dry salicylate element (Example 2); details: Serum w/ Salicylate w/ 100mg/dL N-acetyl cysteine; no blocking reagent
Text: Placement of the blocking reagent in the proper layer of the dry element is essential for stability. In this example, we placed the blocking reagent (0.5 g/m² of maleimide) in the spreading layer of one element, a location that is relatively hydrophobic in nature, and in the reagent layer of another element. […]

Molecule: Silver Nitrate
reducing sulfhydryl interference [1]: work well | Salicylate Prediction of Fluid Fluid B [1]: 40 mg/dL | Salicylate Prediction of Fluid Fluid C [1]: 40 mg/dL | Salicylate Prediction of Fluid Fluid A [1]: 40 mg/dL | bias, Std w/ AgNO3 ([2]; Salicylate at 15 mg/dL, 1 hour contact w/ rubber stoppers containing 2-benzothiazolethiol, 0.4 g/m² silver nitrate): 0.3 mg/dL bias | bias, Std w/ AgNO3 ([2]; Salicylate at 15 mg/dL, n-acetylcysteine at 102 mg/dL, 0.4 g/m² silver nitrate in spreading layer): -0.01 mg/dL bias | bias, Std w/ AgNO3 ([2]; Salicylate at 40 mg/dl, 1 hour contact w/ rubber stoppers containing 2-benzothiazolethiol, 0.4 g/m² silver nitrate): 0.3 mg/dL bias | bias, Std w/ AgNO3 ([2]; Salicylate at 40 mg/dl, n-acetylcysteine at 102 mg/dL, 0.4 g/m² silver nitrate): -1.2 mg/dL bias

Molecule: NC(=O)CI [Iodoacetamide]
Salicylate Prediction of Fluid Fluid B [1]: 12 mg/dL | Salicylate Prediction of Fluid Fluid C [1]: 42 mg/dL | Salicylate Prediction of Fluid Fluid A [1]: 40 mg/dL

Molecule: CCN1C(=O)C=CC1=O [N-ethyl-maleimide]
enzyme rate [3]: no improvement in enzyme rate is observed

Molecule: Gold Chloride
reducing sulfhydryl interference [1]: work well | Salicylate Prediction of Fluid Fluid B [1]: 40 mg/dL | Salicylate Prediction of Fluid Fluid C [1]: 40 mg/dL | Salicylate Prediction of Fluid Fluid A [1]: 40 mg/dL

Molecule: Fe(NO)₃
Salicylate Prediction of Fluid Fluid B [1]: 0.0 mg/dL | Salicylate Prediction of Fluid Fluid C [1]: 17 mg/dL | Salicylate Prediction of Fluid Fluid A [1]: 40 mg/dL

peroxidase activity, as monitored by dye formation (horse radish peroxidase): significantly inhibited
Molecule: CC(=O)N[C@@H](CS)C(=O)O [NAC, N-acetyl cysteine]
bias, Standard element ([4]; Acetaminophen at 1 mg/dL): -1.0 mg/dL bias | bias, Standard element ([4]; Acetaminophen at 52 mg/dl): -52 mg/dL bias | bias, Standard element ([4]; Acetaminophen at 202 mg/dL): -200 mg/dL bias | Final absorbances ([5]; 1 mM NAC added after colour formation complete): 1.100 | Final absorbances ([5]; 2.5 mM NAC added after colour formation complete): 0.600 | Final absorbances ([5]; 10 mM NAC added after colour formation complete): 0.150 | time in which cuvette lost color ([5]; cuvettes with 1, 2.5 or 10 mM NAC): less than 10 seconds | salicylate prediction, Standard Element [6]: 0.0 mg/dL | bias, Standard element ([2]; Salicylate at 15 mg/dL, n-acetylcysteine at 102 mg/dL): -11.32 mg/dL bias | bias, Standard element ([2]; Salicylate at 40 mg/dl, n-acetylcysteine at 102 mg/dL): -40 mg/dL bias

Molecule: Sc1nc2ccccc2s1 [2-benzothiazolethiol]
bias, Standard element ([2]; Salicylate at 15 mg/dL, 1 hour contact w/ rubber stoppers containing 2-benzothiazolethiol): -12.9 mg/dL bias | bias, Standard element ([2]; Salicylate at 40 mg/dl, 1 hour contact w/ rubber stoppers containing 2-benzothiazolethiol): -31.5 mg/dL bias
